Data on eight molecules can be found in patent publication US6545019B2, “Method of modulating microglial activation for the treatment of acute and chronic neurodegenerative disorders” (Bristol-Myers Squibb Company, priority 2000, dated 2003).

“Also recorded” adds a separate entry of the source.

The test system of assay [1] is LPS activated rat microglia cells. Put plainly: Nitrite (NO) release from LPS activated rat primary microglia (Modified Griess Reagent). In kind it is cell-based. The conditions noted are these: 100 ng/ml LPS, compound 1 hr before LPS, supernatant 24 hrs post-LPS. The method, then: (§1) Rat microglia were prepared from two day old rat pups. Pup brains were removed and the meninges were gently removed. Once sufficient amount of brains were collected, brains were minced with a blunt scissors (10 times) and transferred to a 15ml conical tube with a pasteur pipette and titurated 25 times. Dissociated cells were then centrifuged at 1000 RPM for 10 minutes (RT). The supernatant was removed and 2 mls of fresh media was added. The resultant cell suspension was titurated 10 times. Following titration the cell suspension was plated in a T175 cm^2 culture flasks at a density of 4 brains per flask in 25 mls. MEM media was used for the experiments, supplemented with 10% FBS, 100 i.u.penicillin, 100 i.u.streptomycin and L-Glutamine. Microglia were isolated on day 14 by shaking on an orbital rotation shaker. The purity of the cultures was 98-100% as determined by immunostaining with ED-40 antibody.
(§2) Endotoxin (LPS) at a concentration of a 100 ng/ml were used for activation of rat microglia cells. This concentration had previously shown to be effective in inducing TNF-alpha and Nitrite release. All assays were performed in 48 well plates (Becton Dickinson) at ˜2×10^5 cells or 0.5×10^5 per 1 ml per well in 10% MEM media. Microglia cells were pre-incubated 1 hr prior to LPS challenge with either vehicle (0.1%DMSO) or test compound in DMEM containing 10%FBS (microglia) or RPMI containing 10%FBS (THP-1 monocytes). Supernatants from LPS activated rat microglia were collected at 24 hrs post-LPS challenge.
Nitrite assay was performed in a 96 well plate using a Modified Griess Reagent (Sigma). In brief, a 100 ul of Modified Griess Reagent was added to a 100 ul of collected supernatant. Samples were read at a wavelength of 540nm. All values were calculated against a NaNO2 standard curve.
Background: Nitrite, measured by Griess reagent, commonly stands in for NO production.

Assay [2] has the same test system. Put plainly: TNF-alpha release from LPS activated rat primary microglia (ELISA). The class given is cell-based. To be noted: for TNF-alpha release: rat primary microglia, 100 ng/ml LPS, compound 1 hr before LPS, supernatant 24 hrs post-LPS. The method, then: as §1, §2
Collected supernatants were assayed for TNF-alpha using a Pharmingen OPtEIA Rat (microglia).
A general note: In an ELISA, binding on a coated surface is turned into a signal by an enzyme label.

For another assay, the system named is IκBα. Put plainly: LPS mediated IκBα degradation in microglia (immunoblotting). In kind it is cell-based, rat. To be noted: 100 ng/ml LPS, 10μM ATFMK, 50μM L-655,238. The method, then:
Immunoblotting was carried out as described previously (Parvathenani et al., 2000). Briefly 25μg of protein was fractionated on a 4-20% tris-glycine gel (NOVEX, Calif.) and transferred to PVDF membrane (NOVEX, Calif.). The membrane was probed with a polyclonal antibody specific for IκBα. To distinguish between the phosphorylated and non-phosphorylated forms of cPLA2, 50μg of protein was run on an 8% tris-glycine gel (Novex, Calif.) for 4.5 hours at 125V, transferred and probed with a monoclonal antibody specific for cPLA2.
Effects of cPLA2 and 5-LOX inhibitors on LPS mediated IκBα degradation. Microglia were treated with 100 ng/ml of LPS for various periods of time following which whole cell lysates were prepared and run on SDS-PAGE, transferred and probed with a IκBα antibody as mentioned in immunoblotting. (6A) 100 ng/ml LPS alone, (6B) LPS+10μM ATFMK, (6C) LPS+50μM L-655,238.
Background: Immunoblotting shows a protein as a band on a membrane.

The test system of a further assay is NF-κB (p65). In words: LPS mediated NF-κB (p65) nuclear translocation in microglia (indirect immunofluorescence). The class given is cell-based, rat. To be noted: 100 ng/ml LPS, 5 min, 10μM ATFMK, 50μM L-655,238. How it is done:
Cells were washed once with PBS, fixed and permeabilized with ice cold methanol (100%) for 5 minutes and washed 3× in PBS for 10 min. The cover slips were blocked for 1 hour in 10% serum/PBS (serum derived from animal in which secondary antibody was generated), incubated for 2-3 hours in primary antibody solution (1:50 dilution in 1.5% serum/PBS) and washed 3× in PBS for 10 min. Secondary antibody linked to fluorescein was applied for one hour (1:100 dilution in 1.5% serum/PBS) and washed 3× in PBS for 10 min. If the nucleus was stained, the cells were incubated for 15 minutes with DAPI (1:10000) at 37° C. and washed. The coverslips were then mounted onto glass slides using mounting media and viewed under a fluorescence microscope.
Effects of cPLA2 and 5-LOX inhibitors on LPS mediated NF-κB translocation. Microglia were treated with 100 ng/ml of LPS for various periods of time following which p65 distribution was assessed by indirect immunofluorescence (7A) control, (7B) LPS-5 min., (7C) LPS+10μM ATFMK—5 min., (7D) LPS+50μM L-655,238—5 min. (7E) LPS+NDGA-20μM—5 min.

The next assay relates to IκBα phosphorylation. To be noted: irreversible inhibitor; read-out: IC50, inhibition of IκBα phosphorylation; cited from earlier work.
Another assay deals with COX. The conditions noted are these: cited from earlier work.
For a further assay, the system named is 5-LOX. To be noted: cited from earlier work.

`CCCCC/C=C\C/C=C\C/C=C\C/C=C\CCCC(=O)C(F)(F)F` [ATFMK, arachidonyltrifluoromethyl ketone]: the “nitrite (NO) release” value in assay [1] is “significant dose-dependent inhibition; also recorded: significantly inhibited nitrite release”. Moreover, in assay [2], the TNF-alpha release result is “significant dose-dependent inhibition; also recorded: significantly inhibited TNF-alpha release”. Further, in the assay on IκBα, the “degradation of IκBα following LPS stimulation” value is given as “attenuated the degradation of IκBα”. The “translocation of NF-κB into the nucleus” value in the assay on NF-κB (p65) was “delayed the translocation of NF-κB into the nucleus”.
Usually IC50 stands for the concentration at which inhibition is half-maximal. On to `CC(C)(C)c1ccc(S(=O)(=O)/C=C/C#N)cc1` [BAY 11-7085, (E)3-((4-t-Butylphenyl)sulfonyl)-2-propenenitrile], for which the “nitrite (NO) release” value in assay [1] is “inhibited LPS induced TNFα and NO release to control levels”. In assay [2], the TNF-alpha release result is “inhibited LPS induced TNFα and NO release to control levels”. In addition, the IC50 in the assay with IκBα phosphorylation was 10 µM.
With `O=C(CCc1ccc(OCCS(=O)(=O)CCOC(c2ccc(Cl)cc2)c2ccc(Cl)cc2)cc1)C(F)(F)F` [BMS 229724], the “nitrite (NO) release” value in assay [1] is “significant dose-dependent inhibition”. For the same molecule, the results for the TNF-alpha release entry in assay [2] and in assay [2] (listed as BMS-229724) were “significant dose-dependent inhibition” and “significantly inhibited TNF-alpha release”, respectively.
As for `CC(C)Cc1ccc(C(C)C(=O)O)cc1` (centres unmarked) [Ibuprofen], the TNF-alpha release result in assay [2] was “failed to produce any reduction in TNF-alpha release”.
Turning to `CC(Cc1ccc(O)c(O)c1)C(C)Cc1ccc(O)c(O)c1` (centres unmarked) [NDGA, nordihdroguaiaretic acid], in assay [1], the “nitrite (NO) release” value was “dose dependently inhibited TNF-alpha release and nitrite to near control levels”. For the same molecule, in assay [2], the TNF-alpha release entry was “dose dependently inhibited TNF-alpha release and nitrite to near control levels; also recorded: significantly inhibited TNF-alpha release”. For the same molecule, the IC50 was 100 µM with COX and […] in the assay on 5-LOX.
Consider `Cc1ccc(-c2cc(C(F)(F)F)nn2-c2ccc(S(N)(=O)=O)cc2)cc1` [celecoxib], for which the “pro-inflammatory release on activated microglia” value in assay [2] is “no significant effect”.
For the molecule `CCCCCC(O)c1ccc(Cc2cnc3ccccc3c2)cc1` (stereo not drawn) [para-REV5901, α-pentyl-4-(3-quinolinylmethyl)benzenemethanol], the “nitrite (NO) release” value in assay [1] was “dose dependently inhibited TNF-alpha release and nitrite to near control levels; also recorded: significantly inhibited nitrite release”. In addition, in assay [2], the TNF-alpha release entry was “dose dependently inhibited TNF-alpha release and nitrite to near control levels; also recorded: significantly inhibited TNF-alpha release”. Further, the IC50 with 5-LOX was 0.1 µM. Moreover, the “degradation of IκBα following LPS stimulation” value with IκBα is listed as “attenuated the degradation of IκBα”. The “translocation of NF-κB into the nucleus” value in the assay on NF-κB (p65) is listed as “delayed the translocation of NF-κB into the nucleus”.
With `CS(=O)(=O)c1ccc(C2=C(c3ccccc3)C(=O)OC2)cc1` [rofecoxib], in assay [2], the “pro-inflammatory release on activated microglia” value is reported as “no significant effect” and the TNF-alpha release entry was “failed to produce any reduction in TNF-alpha release”.
